Like-named read-outs stand apart in the source and are kept apart here.
[1] = RDE (Regimen 1B 120 mg) (n = 9)

## COc1ncc(-c2nc3c(n2C(C)C)[C@H](c2ccc(Cl)cc2)N(c2cc(Cl)cn(C)c2=O)C3=O)c(OC)n1 [HDM201, (S)-5-(5-Chloro-1-methyl-2-oxo-1,2-dihydro-pyridin-3-yl)-6-(4-chloro-phenyl)-2-(2,4-dimethoxy-pyrimidin-5-yl)-1-isopropyl-5,6-dihydro-1H-pyrrolo[3,4-d]imidazol-4-one]
1B all subjects, N=20
  Nausea, Grade 3/4: 1 n (%)
  Neuralgia, All Grades: 1 n (%)
  Neuralgia, Grade 3/4: 0 n (%)
  Neutropenia, All Grades: 6 n (%)
  Neutropenia, Grade 3/4: 5 n (%)
  Neutrophil Count Decreased, All Grades: 3 n (%)
  Neutrophil Count Decreased, Grade 3/4: 2 n (%)
  Oedema, All Grades: 1 n (%)
  Oedema, Grade 3/4: 0 n (%)
  Oral Candidiasis, All Grades: 1 n (%)
  Oral Candidiasis, Grade 3/4: 0 n (%)
  Platelet Count Decreased, All Grades: 4 n (%)
  Platelet Count Decreased, Grade 3/4: 0 n (%)
  Pruritus, All Grades: 1 n (%)
  Pruritus, Grade 3/4: 0 n (%)
  Thrombocytopenia, All Grades: 5 n (%)
  Thrombocytopenia, Grade 3/4: 2 n (%)
  Total, All Grades: 19 n (%)
  Total, Grade 3/4: 9 n (%)
  Vomiting, All Grades: 5 n (%)
  Vomiting, Grade 3/4: 0 n (%)
  Weight Decreased, All Grades: 1 n (%)
  Weight Decreased, Grade 3/4: 0 n (%)
  White Blood Cell Count Decreased, All Grades: 3 n (%)
  White Blood Cell Count Decreased, Grade 3/4: 0 n (%)
All Regimens (N = 85)
  Anemia, All Grades: 25 (29) n (%)
  Anemia, Grade 3/4: 10 n (%)
  Decreased Appetite, All Grades: 19 (22) n (%)
  Decreased Appetite, Grade 3/4: 2 n (%)
  Diarrhea, All Grades: 13 (15) n (%)
  Diarrhea, Grade 3/4: 0 n (%)
  Fatigue, All Grades: 19 (22) n (%)
  Fatigue, Grade 3/4: 2 n (%)
  Leukopenia, All Grades: 12 (14) n (%)
  Leukopenia, Grade 3/4: 8 n (%)
  Nausea, All Grades: 44 (52) n (%)
  Nausea, Grade 3/4: 1 n (%)
  Neutropenia, All Grades: 18 (21) n (%)
  Neutropenia, Grade 3/4: 15 n (%)
  Platelet Count Decreased, All Grades: 15 (18) n (%)
  Platelet Count Decreased, Grade 3/4: 7 n (%)
  Thrombocytopenia, All Grades: 27 (32) n (%)
  Thrombocytopenia, Grade 3/4: 14 n (%)
  Vomiting, All Grades: 19 (22) n (%)
  Vomiting, Grade 3/4: 0 n (%)
  White blood cell count decrease, All Grades: 11 (13) n (%)
  White blood cell count decrease, Grade 3/4: 3 n (%)
[1]
  Anemia, All Grades: 2 (22.2) n(%)
  Anemia, G3/4: 0 n(%)
  Leukopenia/white blood cell count decreased, All Grades: 3 (33.3) n(%)
  Leukopenia/white blood cell count decreased, G3/4: 0 n(%)
  Neutropenia/neutrophil count decreased, All Grades: 2 (22.2) n(%)
  Neutropenia/neutrophil count decreased, G3/4: 2 (22.2) n(%)
  Thrombocytopenia/platelet count decreased, All Grades: 4 (44.4) n(%)
  Thrombocytopenia/platelet count decreased, G3/4: 0 n(%)
Regimen 1A (n = 26)
  Anemia, All Grades: 10 (38.5) n(%)
  Anemia, G3/4: 3 (11.5) n(%)
  Leukopenia/white blood cell count decreased, All Grades: 9 (34.6) n(%)
  Leukopenia/white blood cell count decreased, G3/4: 5 (19.2) n(%)
  Neutropenia/neutrophil count decreased, All Grades: 9 (34.6) n(%)
  Neutropenia/neutrophil count decreased, G3/4: 8 (30.7) n(%)
  Thrombocytopenia/platelet count decreased, All Grades: 12 (46.2) n(%)
  Thrombocytopenia/platelet count decreased, G3/4: 8 (30.8) n(%)
Regimen 1B (n = 20)
  Anemia, All Grades: 5 (25.0) n(%)
  Anemia, G3/4: 0 n(%)
  Leukopenia/white blood cell count decreased, All Grades: 5 (25.0) n(%)
  Leukopenia/white blood cell count decreased, G3/4: 1 (5.0) n(%)
  Neutropenia/neutrophil count decreased, All Grades: 8 (40.0) n(%)
  Neutropenia/neutrophil count decreased, G3/4: 6 (30.0) n(%)
  Thrombocytopenia/platelet count decreased, All Grades: 9 (45.0) n(%)
  Thrombocytopenia/platelet count decreased, G3/4: 2 (10.0) n(%)
Regimen 2A (n = 20)
  Anemia, All Grades: 6 (30.0) n(%)
  Anemia, G3/4: 4 (20.0) n(%)
  Leukopenia/white blood cell count decreased, All Grades: 4 (20.0) n(%)
  Leukopenia/white blood cell count decreased, G3/4: 3 (15.0) n(%)
  Neutropenia/neutrophil count decreased, All Grades: 5 (25.0) n(%)
  Neutropenia/neutrophil count decreased, G3/4: 4 (20.0) n(%)
  Thrombocytopenia/platelet count decreased, All Grades: 10 (50.0) n(%)
  Thrombocytopenia/platelet count decreased, G3/4: 7 (35.0) n(%)
Regimen 2C (n = 19)
  Anemia, All Grades: 4 (21.1) n(%)
  Anemia, G3/4: 3 (15.8) n(%)
  Leukopenia/white blood cell count decreased, All Grades: 2 (10.5) n(%)
  Leukopenia/white blood cell count decreased, G3/4: 1 (5.3) n(%)
  Neutropenia/neutrophil count decreased, All Grades: 3 (15.8) n(%)
  Neutropenia/neutrophil count decreased, G3/4: 2 (10.5) n(%)
  Thrombocytopenia/platelet count decreased, All Grades: 8 (42.1) n(%)
  Thrombocytopenia/platelet count decreased, G3/4: 3 (15.8) n(%)
All 4 regimens, 44/85
  nausea, all grade, patients: 52%
All treatment regimens
  Grade 3/4 hematological toxicities suspected to be study-drug related, patients: ≤ 35%
Regimen 1B
  overall incidence of grade 3/4 thrombocytopenia compared across the 4 regimens: lowest
Regimen 1B 120 mg
  dose interruptions or discontinuations due to thrombocytopenia: no dose interruptions or discontinuations
  grade 3/4 neutropenia: 2 out of 9
  non-hematologic dose limiting toxicities or grade 3/4 AEs: no non-hematologic dose limiting toxicities or grade 3/4 AEs
  platelet transfusions required: no patients required platelet transfusions
Regimen 1B 150 mg
  time to first occurrence of G4 thrombocytopenia: > 100 days
Regimen 1B (d1 and d8 of 4 w cycle)
  therapeutic index among the 4 dosing regimens: most favorable therapeutic index
Regimen 1B, 20 patients
  lipase increase, CTCAE grade 3/4, patients: 15%
  nausea, all grades, patients: 60.0%
  neutropenia/neutrophil count decreased, CTCAE grade 3/4, patients: 30.0%
  neutropenia/neutrophil count decreased, all grades, patients: 40.0%
  patients with at least one CTCAE grade 3/4 AE suspected to be treatment-related: 45.0%
  thrombocytopenia/platelet count decrease, CTCAE grade 3/4, patients: 10.0%
  thrombocytopenia/platelet count decreased, all grades, patients: 45.0%
  vomiting, all grades, patients: 25.0%
